# The source made the active and inactive calls. The rule behind the calls is not given here.
# Experiments:
# [1] = target: T1, Histone acetyltransferase p300 (Homo sapiens, UniProt Q09472); assay: Binding affinity to GST-tagged recombinant P300 CH1 domain expressed in Escherichia coli BL21 by Coomassie staining-based gel electrophoresis; conditions: tested as the 14C-labelled form
# [2] = target: T1, Histone acetyltransferase p300; assay: Binding affinity to recombinant P300 CH1 domain assessed as dissociation constant by surface plasmon resonance analysis
# [3] = target: T1, Histone acetyltransferase p300; assay: Binding affinity to P300 in human LN229 cell nuclear extracts by Western blot analysis
# [4] = target: Hypoxia-inducible factor 1-alpha (Homo sapiens) (UniProt Q16665); assay: Binding affinity to HIF1alpha in human LN229 cell nuclear extracts by Western blot analysis
# Chain of Hypoxia-inducible factor 1-alpha (Homo sapiens) (Q16665 whole entry, looked up): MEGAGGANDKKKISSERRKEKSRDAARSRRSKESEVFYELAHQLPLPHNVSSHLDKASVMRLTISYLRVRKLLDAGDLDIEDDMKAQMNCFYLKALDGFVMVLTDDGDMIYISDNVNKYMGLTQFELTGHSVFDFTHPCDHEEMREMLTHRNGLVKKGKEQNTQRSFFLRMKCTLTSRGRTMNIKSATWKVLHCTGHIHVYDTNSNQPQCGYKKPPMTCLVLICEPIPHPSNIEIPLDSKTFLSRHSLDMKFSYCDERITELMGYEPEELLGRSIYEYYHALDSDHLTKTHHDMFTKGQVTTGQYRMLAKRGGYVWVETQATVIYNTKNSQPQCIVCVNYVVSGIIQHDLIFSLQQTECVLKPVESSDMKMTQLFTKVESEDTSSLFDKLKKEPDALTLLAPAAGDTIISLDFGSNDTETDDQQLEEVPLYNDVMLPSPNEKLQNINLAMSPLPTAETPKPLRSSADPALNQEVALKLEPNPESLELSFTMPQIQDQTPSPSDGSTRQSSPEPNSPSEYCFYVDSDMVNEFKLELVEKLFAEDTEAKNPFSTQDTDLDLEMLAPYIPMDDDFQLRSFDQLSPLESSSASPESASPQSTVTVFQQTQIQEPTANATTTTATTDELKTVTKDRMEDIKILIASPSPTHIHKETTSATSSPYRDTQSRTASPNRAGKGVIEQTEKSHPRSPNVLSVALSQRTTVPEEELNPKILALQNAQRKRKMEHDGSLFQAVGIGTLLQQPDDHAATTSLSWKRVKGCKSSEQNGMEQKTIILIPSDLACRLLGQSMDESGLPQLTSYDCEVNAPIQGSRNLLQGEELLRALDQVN
# T1 sequence (Q09472 whole entry, the tested form may be a part): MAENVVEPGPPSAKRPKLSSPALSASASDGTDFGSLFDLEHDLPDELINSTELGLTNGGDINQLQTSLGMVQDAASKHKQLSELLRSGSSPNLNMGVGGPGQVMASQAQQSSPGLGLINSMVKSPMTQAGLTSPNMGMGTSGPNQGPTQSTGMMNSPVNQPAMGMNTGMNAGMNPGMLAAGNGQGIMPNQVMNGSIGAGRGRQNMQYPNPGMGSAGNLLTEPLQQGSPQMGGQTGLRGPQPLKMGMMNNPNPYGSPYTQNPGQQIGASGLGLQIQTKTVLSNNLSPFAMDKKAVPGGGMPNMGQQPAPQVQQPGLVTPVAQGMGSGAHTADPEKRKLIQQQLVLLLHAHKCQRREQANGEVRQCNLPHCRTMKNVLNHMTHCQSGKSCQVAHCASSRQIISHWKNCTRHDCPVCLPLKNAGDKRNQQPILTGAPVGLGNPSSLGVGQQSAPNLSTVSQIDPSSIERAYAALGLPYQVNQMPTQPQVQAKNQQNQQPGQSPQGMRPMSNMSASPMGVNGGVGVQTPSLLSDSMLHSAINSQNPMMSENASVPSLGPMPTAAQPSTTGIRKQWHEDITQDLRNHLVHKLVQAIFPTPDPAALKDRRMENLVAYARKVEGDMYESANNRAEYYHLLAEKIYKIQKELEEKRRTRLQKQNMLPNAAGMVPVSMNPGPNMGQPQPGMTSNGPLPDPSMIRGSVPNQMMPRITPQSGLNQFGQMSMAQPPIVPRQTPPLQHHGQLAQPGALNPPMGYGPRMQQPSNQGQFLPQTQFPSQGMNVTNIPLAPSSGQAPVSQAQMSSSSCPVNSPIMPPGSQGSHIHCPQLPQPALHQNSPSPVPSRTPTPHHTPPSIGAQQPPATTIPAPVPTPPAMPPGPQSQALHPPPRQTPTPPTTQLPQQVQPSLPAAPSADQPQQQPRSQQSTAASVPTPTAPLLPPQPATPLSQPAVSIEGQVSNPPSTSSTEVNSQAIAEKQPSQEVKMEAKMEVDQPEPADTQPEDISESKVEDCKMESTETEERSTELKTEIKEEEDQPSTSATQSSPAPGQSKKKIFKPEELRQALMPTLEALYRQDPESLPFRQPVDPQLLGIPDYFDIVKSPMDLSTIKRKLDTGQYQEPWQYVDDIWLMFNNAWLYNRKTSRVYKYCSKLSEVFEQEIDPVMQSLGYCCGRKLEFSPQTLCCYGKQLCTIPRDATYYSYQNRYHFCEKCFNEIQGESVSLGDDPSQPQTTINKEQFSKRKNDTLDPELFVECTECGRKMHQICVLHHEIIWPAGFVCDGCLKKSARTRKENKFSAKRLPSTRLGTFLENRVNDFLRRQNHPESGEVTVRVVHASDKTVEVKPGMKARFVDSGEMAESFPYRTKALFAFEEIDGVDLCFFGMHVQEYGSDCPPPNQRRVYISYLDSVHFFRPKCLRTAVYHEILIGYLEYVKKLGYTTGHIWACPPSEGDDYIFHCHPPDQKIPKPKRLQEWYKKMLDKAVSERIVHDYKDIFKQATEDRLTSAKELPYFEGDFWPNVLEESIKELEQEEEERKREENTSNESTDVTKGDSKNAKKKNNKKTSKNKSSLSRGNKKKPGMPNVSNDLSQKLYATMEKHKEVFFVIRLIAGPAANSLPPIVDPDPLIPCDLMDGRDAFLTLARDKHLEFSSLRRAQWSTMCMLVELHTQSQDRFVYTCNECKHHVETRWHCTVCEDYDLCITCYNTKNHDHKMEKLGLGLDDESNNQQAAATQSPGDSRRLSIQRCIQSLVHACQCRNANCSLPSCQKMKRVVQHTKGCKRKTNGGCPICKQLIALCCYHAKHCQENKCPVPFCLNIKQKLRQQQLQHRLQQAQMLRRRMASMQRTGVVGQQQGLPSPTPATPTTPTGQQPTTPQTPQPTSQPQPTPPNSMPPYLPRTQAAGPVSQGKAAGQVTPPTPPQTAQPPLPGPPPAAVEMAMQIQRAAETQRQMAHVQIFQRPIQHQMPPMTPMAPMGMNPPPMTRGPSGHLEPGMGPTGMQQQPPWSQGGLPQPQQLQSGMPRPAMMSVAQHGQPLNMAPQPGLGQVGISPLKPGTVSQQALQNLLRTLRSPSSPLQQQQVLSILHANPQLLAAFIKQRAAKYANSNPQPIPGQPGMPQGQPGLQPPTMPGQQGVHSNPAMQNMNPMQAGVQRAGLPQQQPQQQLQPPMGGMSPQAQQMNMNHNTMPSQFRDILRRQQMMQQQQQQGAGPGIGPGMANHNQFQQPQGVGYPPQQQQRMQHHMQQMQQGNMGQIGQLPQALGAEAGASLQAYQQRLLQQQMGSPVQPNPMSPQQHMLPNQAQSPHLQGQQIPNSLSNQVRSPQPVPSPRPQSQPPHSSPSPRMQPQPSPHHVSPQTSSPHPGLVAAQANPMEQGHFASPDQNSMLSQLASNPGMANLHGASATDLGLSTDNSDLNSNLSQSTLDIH
structure (smiles),measurement,setting,value
COc1ccc(S(=O)(=O)N(Cc2ccc3c(c2)C=CC(C)(C)O3)c2ccccc2)cc1OC,Activity,[1],Active
same,Kd,[2],345 nM
same,Activity,[3],Active
same,Activity,[4],inactive

# Source: ChEMBL document CHEMBL2169864, “Binding Model for the Interaction of Anticancer Arylsulfonamides with the p300 Transcription Cofactor” (ACS Med Chem Lett, 2012)
